Laboratory results taken from patent publication US7563774B2, “Combination of FBPase inhibitors and antidiabetic agents useful for the treatment of diabetes” (Metabasis Therapeutics, Inc., priority 2000, dated 2009).

Assays:
[1] = system: Db/db or ob/ob mice; assay: Acute combination treatment of a glycogen phosphorylase inhibitor and an FBPase inhibitor in db/db or ob/ob mice (Example FF); assay type: in vivo, mouse; settings: 0.5 to 300 mg/kg p.o.
Protocol: (§1) Db/db or ob/ob mice are purchased at 5 weeks of age from Jackson Laboratories (Bar Harbor, Me.). The mice are maintained under standard vivarium conditions (24-26° C., 12-hour light cycle, 12-hour dark cycle) and receive standard chow and water ad libitum. At more than 10 weeks of age, animals are divided into 4 groups (n=5 to 7/group). […] Food is made available after treatment. Blood glucose levels in tail vein samples are measured by means of standard manual or automated methods.

[2] = system: ZDF rats; assay: Chronic combination treatment of an insulin secretagogue and an FBPase inhibitor in the ZDF rat (Example Y); assay type: in vivo; settings: maximal doses, 2 to 12 weeks
Source text: Male ZDF rats are purchased at 7 weeks of age from Genetics Models Inc. (Indianapolis, Ind.). […] At 8 weeks of age, animals are divided into 4 treatment groups (n=8/group). The treatments are control, Compound J, glyburide, and the combination of Compound J and glyburide. […] Other parameters measured by standard assays include: lactate, glycerol, alanine, triglycerides, free fatty acids, ketone bodies, hepatic and muscle glycogen, cholesterol, VLDL, HDL, hemoglobin Alc, body weight, food and water intake, as well as other measures of carbohydrate, lipid, and protein metabolism. […] Differences between groups are evaluated ANOVA using an appropriate post hoc test. Results are considered significant with p<0.05.

[3] = system: Db/db or ob/ob mice; assay: Acute combination treatment of a glucose-6-phosphatase inhibitor and an FBPase inhibitor in db/db or ob/ob mice (Example GG); assay type: in vivo, mouse; settings: 0.5 to 300 mg/kg p.o.
Protocol: as §1, with “is either withheld or” for “is”

[4] = system: Sprague Dawley rats; assay: Oral glucose lowering in overnight fasted Sprague Dawley rats (Example G); assay type: in vivo, rat; settings: […]
Protocol: Oral efficacy of Compound J was assessed in overnight fasted Sprague Dawley rats. […] At 1.5 h or 4 h post drug administration, a blood sample was taken from the tail vein and analyzed for blood glucose by means of an automated glucose analyzer (HemoCue, HemoCue Inc, Mission Viejo, Calif.).

[5] = system: C57BL/KsJ db/db mice; assay: Chronic combination treatment of insulin and Compound J in db/db mice (Example BB); assay type: in vivo, mouse; settings: combination group versus insulin alone
Protocol: Male C57BL/KsJ db/db mice were purchased at 5 weeks of age from Clea Japan, Inc. (Tokyo, Japan). […] At 19 weeks of age, animals were divided into 2 groups (n=6/group). […] Blood glucose levels in tail vein samples were measured by means of a Glucoloader-F, an automatic glucose analyzer, (A&T Co., Ltd., Tokyo, Japan).

[6] = system: Goto-Kakizaki (GK) rats; assay: Acute combination treatment of insulin and an FBPase inhibitor in the Goto-Kakizaki rat (Example CC); assay type: in vivo
Protocol: Male Goto-Kakizaki (GK) rats were purchased at 9 weeks of age from Charles River Japan, Inc. (Tokyo, Japan). The rats were maintained under standard vivarium conditions (24-26° C., 12-hour light cycle, 12-hour dark cycle) and received standard chow and water ad libitum. At 48 weeks of age, animals were divided into 4 groups (n=6/group) after an overnight fast. The treatment groups were control, Compound J, insulin, and combination of Compound J and insulin. […] Insulin (human recombinant insulin, Penfill N300, Novo Nordisk, Denmark) was subcutaneously injected at the dose of 1.5 U/kg. Blood glucose levels in tail vein samples were measured by means of a Glucoloader-F, an automatic glucose analyzer, (A&T Co., Ltd., Tokyo, Japan).

[7] = system: Goto-Kakizaki rats; assay: Acute combination treatment of an alpha glucosidase inhibitor and an FBPase inhibitor in Goto-Kakizaki rats (Example EE); assay type: in vivo, rat
Protocol: Goto-Kakizaki rats, an animal model of lean NIDDM, were purchased at 5 weeks of age from Charles River Japan, Inc. (Tokyo, Japan). The rats were maintained under standard vivarium conditions (24-26° C., 12-hour light cycle, 12-hour dark cycle) and received standard chow and water ad libitum. At 18 weeks of age, animals were divided into 4 groups (n=5/group). The treatment groups were control, Compound J, acarbose (Bayer, Japan), and the combination of Compound J and acarbose. All animals were given 1 g/kg of corn starch by oral gavage. […] Acarbose was administered orally at a dose of 1 mg/kg simultaneously with starch. Blood glucose levels in tail vein samples were measured by means of a Glucoloader-F, an automatic glucose analyzer, (A&T Co., Ltd., Tokyo, Japan).

[8] = system: Zucker Diabetic Fatty rats; assay: Acute combination treatment of an insulin secretagogue and Compound J in the ZDF rat (Example X); assay type: in vivo
Protocol: Experimental Protocol: Zucker Diabetic Fatty rats (9.5 weeks of age) were fasted for 5 hours starting at 8 am. The animals were then divided into 4 treatments groups with statistically similar baseline blood glucose levels. Test compounds were administered by oral gavage. The treatments were as shown below:
One hour after saline or drug administration, all animals received a simulated meal in the form of an oral bolus of glucose (1 g/kg). Blood glucose was then monitored at regular time intervals for 3 hours. Test compounds were prepared as suspensions in 0.1% carboxymethylcellulose. Blood samples were obtained by nicking of a tail vein. Blood glucose was measured by means of a HemoCue glucose analyzer according to the manufacturer's instructions (HemoCue Inc., Mission Viejo, Calif.). Results are expressed as the mean ± standard error of the mean for all values.

[9] = system: Zucker Diabetic Fatty (ZDF) rat; assay: Glucose lowering in the ZDF rat (Example W); assay type: in vivo; settings: for Blood Glucose: 0.4% food admixture
Source text: The Zucker Diabetic Fatty (ZDF) rat is widely used as a model for human NIDDM as the progression of the disease in these rodents is similar to that described for human […] patients. […] Clark J B, Palmer C J (1982) Diabetes 30: 126A Terrettaz J, Jeanrenaud B (1983) Endocrinology 112: 1346-1351.

[10] = glyburide 100 mg/kg, Compound J 300 mg/kg p.o.

## CCOC(=O)[C@H](C)NP(=O)(N[C@@H](C)C(=O)OCC)c1ccc(-c2nc(N)sc2CC(C)C)o1 [Compound J, 2-Amino-5-isobutyl-4-{2-[5-(N,N′-bis((S)-1-ethoxycarbonyl)ethyl)phosphonamido]furanyl}thiazole]
[1]
  blood glucose lowering: significantly lower blood glucose relative to control values
[2]
  glycemic control: more effective than glyburide as pancreatic function declines
[3]
  blood glucose lowering: significantly lower blood glucose relative to control values
[4]; Compound J 10 mg/kg p.o.
  Glucose Lowering, %: 66%
[4]; Compound J 30 mg/kg p.o.
  Glucose Lowering, %: 85%
[5]
  decrease of the insulin dose required to reduce plasma glucose to target levels: ~40%
[6]; GK rats, acute
  plasma glucose lowering: progressively decreased plasma glucose
[6]; after 2 hour
  Plasma Glucose, % of before: (65.6 +/− 6.6) %
[6]; after 2 hour, Compound J 50 mg/kg p.o., insulin 1.5 U/kg s.c.
  Plasma Glucose: 106.3 ± 11.0 mg/dL
[6]; after 4 hours
  Plasma Glucose: 79.6 ± 4.9 mg/dL
  Plasma Glucose, % of before: (51.0 +/− 2.7) %
[6]; after 6 hours
  Plasma Glucose: 35.4 ± 10.8 mg/dL
  Plasma Glucose, % of before: (22.6 +/− 6.7) %
[6]; before (0 hour)
  Plasma Glucose: 161.8 ± 6.6 mg/dL
  Plasma Glucose, % of before: (100.0 +/− 0.0) %
[7]; 0 min
  Plasma Glucose, relative value (% of pre-treatment value): (121.8 +/− 8.0) %
[7]; 0 min, Compound J 10 mg/kg p.o. at −60 min, acarbose 1 mg/kg p.o. with starch
  Plasma Glucose: 218.4 ± 19.9 mg/dL
[7]; 30 min after starch
  Plasma Glucose: 245.2 ± 29.9 mg/dL
  Plasma Glucose, relative value (% of pre-treatment value): (135.2 +/− 9.2) %
[7]; 60 min after starch
  Plasma Glucose: 251.0 ± 28.6 mg/dL
  Plasma Glucose, relative value (% of pre-treatment value): (138.5 +/− 6.2) %
[7]; 120 min after starch
  Plasma Glucose: 182.8 ± 18.0 mg/dL
  Plasma Glucose, relative value (% of pre-treatment value): (101.8 +/− 7.2) %
[7]; 240 min after starch
  Plasma Glucose: 144.6 ± 9.8 mg/dL
  Plasma Glucose, relative value (% of pre-treatment value): (81.7 +/− 6.7) %
[7]; −60 min
  Plasma Glucose, relative value (% of pre-treatment value): (100.0 +/− 0.0) %
[7]; −60 min relative to starch 1 g/kg
  Plasma Glucose: 179.8 ± 15.2 mg/dL
[8]; [10]
  blood glucose after oral glucose load (FIG. 1): lowering blood glucose to below baseline levels
  blood lactate levels (FIG. 2): increase in blood lactate levels
[8]; initial 4 hours post drug, glyburide 100 mg/kg, Compound J 300 mg/kg p.o., oral glucose 1 g/kg
  AUC glucose: 1121 ± 82 mg·h/dL
[8]; pilot studies, ZDF rat
  maximally efficacious dose: 300 mg/kg
[9]
  glycemic control: significantly improved glycemic control
[9]; Day 0
  Blood Glucose: 674 ± 20 mg/dL
[9]; Day 21
  Blood Glucose: 452 ± 40 mg/dL
